Measurements as given in patent US7161016B1, “Cannabimimetic lipid amides as useful medications” (University of Connecticut, priority 1998, dated 2007).
Like-named read-outs stand apart in the source and are kept apart here.

Assays:
[1] = molecular target: T1, CB2 receptor (Mus musculus, UniProt P47936); test: CB2 receptor binding assay ([3H]CP-55,940 displacement), without PMSF; conditions: mouse spleen membranes
T1 construct: membranes were prepared from frozen mouse spleen; from tissue; host or cells: frozen mouse spleen membranes
Description: (§1) The treated membranes Were subsequently used in the binding assay described below. Approximately 30 μg of PMSF-treated membranes were incubated in silanized 96-well microtiter plate with TME containing 0.1% essentially fatty acid-free bovine serum albumin (BSA), 0.8 nM [^3H] […] The samples were filtered using Packard Filtermate 196 and Whatman GF/C filterplates and washed with wash buffer (TME) containing 0.5% BSA. Radioactivity was detected using MicroScint 20 scintillation cocktail added directly to the dried filterplates, and the filterplates were counted using a Packard Instruments Top-Count. Nonspecific binding was assessed using 100 nM CP-55,940. Data collected from three independent experiments performed with duplicate determinations was normalized between 100% and 0% specific binding for [^3H] CP-55,940, determined using buffer and 100 nM CP-55,940. The normalized data was analyzed using a 4-parameter nonlinear logistic equation to yield IC50 values.
For the CB2 receptor binding studies, membranes were prepared from frozen mouse spleen essentially according to the procedure of P. R. Dodd et al, A Rapid Method for Preparing Synaptosomes: Comparison with Alternative Procedures, Brain Res., 226, 107–118 (1981). Silanized centrifuge tubes were used throughout to minimize receptor loss due to adsorption. The CB2 binding assay was conducted in the same manner as for the CB1 binding assay except the assays were conducted without PMSF. […] The binding affinities (Ki) are expressed in nanomoles (nM).

[2] = molecular target: T2, CB1 cannabinoid receptor (Rattus norvegicus, UniProt P20272); test: CB1 receptor binding assay ([3H]CP-55,940 displacement), with and without PMSF; conditions: rat forebrain membranes
T2 construct: membranes were prepared from rat forebrain membranes; from tissue; host or cells: rat forebrain membranes
Description: It is known that the enzymatic action of anandamide amidase can be moderated or prevented in vitro by the inclusion of phenylmethanesulfonyl fluoride (PMSF). PMSF functions as a nonselective protease inhibitor. Thus the ligand binding determinations for the CB1 receptor were carried out in the presence and absence of PMSF, to obtain both CB1 receptor binding affinity and a relative measure of the analog's metabolic stability. The binding affinities (Ki) are expressed in nanomoles (nM).
For the CB1 receptor binding studies, membranes were prepared from rat forebrain membranes according to the procedure of P. R. Dodd et al, A Rapid Method for Preparing Synaptosomes: Comparison with Alternative Procedures, Brain Res., 107–118 (1981). The binding of the novel analogues to the CB1 cannabinoid receptor was assessed as described in W. A. Devane et al, Determination and Characterization of a Cannabinoid Receptor in a Rat Brain, Mol. Pharmacol., 34, 605–613 (1988) and A. Charalambous et al, 5′-azido Δ^8-THC: A Novel Photoaffinity Label for the Cannabinoid Receptor, J. Med. Chem., 35, 3076–3079 (1992) with the following changes. The above articles are incorporated by reference herein.
Membranes, previously frozen at −80° C., were thawed on ice. To the stirred suspension was added three volumes of 25 mM Tris-HCl buffer, 5 mM MgCl2 and 1 mM EDTA, pH 7.4 (TME) containing 150 μM PMSF (made fresh in 2-propanol as a 100 mM stock). The suspension was incubated at 4° C., and after 15 min a second addition of PMSF stock brought the concentration to 300 μM PMSF; then the mixture was incubated for another 15 min. At the end of the second 15-min incubation, the membranes were pelleted and washed three times with TME to remove un-reacted PMSF.
as §1
The CB1 ligand binding determinations in the absence of PMSF were performed in a similar manner to the above test, except without the use of PMSF.

[3] = PMSF-treated, read-out: KI (CB1), with PMSF
[4] = without PMSF (anandamide amidase active), read-out: KI (CB1), without PMSF

T1 sequence (P47936 whole entry): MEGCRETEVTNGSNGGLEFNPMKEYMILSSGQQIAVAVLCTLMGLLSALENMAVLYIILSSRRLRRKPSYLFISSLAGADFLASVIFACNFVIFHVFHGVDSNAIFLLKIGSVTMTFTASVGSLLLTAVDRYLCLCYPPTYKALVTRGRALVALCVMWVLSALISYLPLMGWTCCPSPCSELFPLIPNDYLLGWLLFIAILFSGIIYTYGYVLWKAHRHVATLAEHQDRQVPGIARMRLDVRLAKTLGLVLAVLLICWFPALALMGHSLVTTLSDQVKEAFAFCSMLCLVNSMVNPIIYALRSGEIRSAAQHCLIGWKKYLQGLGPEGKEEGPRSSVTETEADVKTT
T2 sequence (P20272 whole entry): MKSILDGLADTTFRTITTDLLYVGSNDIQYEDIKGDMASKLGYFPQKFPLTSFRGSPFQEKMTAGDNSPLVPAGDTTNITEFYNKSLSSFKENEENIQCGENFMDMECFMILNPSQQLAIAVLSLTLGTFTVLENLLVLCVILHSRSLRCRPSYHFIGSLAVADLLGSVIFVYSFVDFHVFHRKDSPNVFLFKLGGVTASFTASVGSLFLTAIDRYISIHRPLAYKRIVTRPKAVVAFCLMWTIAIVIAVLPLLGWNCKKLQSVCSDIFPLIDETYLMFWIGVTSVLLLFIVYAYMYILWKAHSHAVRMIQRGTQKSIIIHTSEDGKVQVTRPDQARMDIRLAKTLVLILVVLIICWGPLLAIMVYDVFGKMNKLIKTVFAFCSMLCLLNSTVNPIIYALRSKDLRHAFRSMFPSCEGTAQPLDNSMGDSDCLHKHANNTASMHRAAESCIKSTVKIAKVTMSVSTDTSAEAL

Work on `CCCCCC=CCC=CCC=CCC=CCCCC(=O)NCCCl` [Analog 5, N-(2-Chloroethyl)arachidonylamide] yielded a Ki [1] of 195 nM, a Ki [2, 3] of 5.29 nM and a Ki [2, 4] of 3400 nM.

Work on `CCCCC/C=C\C/C=C\C/C=C\C/C=C\CCCCNC(=O)CO` [Analog 12] yielded a Ki [2, 3] of 20 nM and a Ki [2, 4] of 23 nM.

With `CCCCC/C=C\C/C=C\C/C=C\C/C=C\CCCC(=O)N[C@@H](C)CF` [Analog 2] the Ki [1] was 1340 nM, the Ki [2, 3] was 0.91 nM and the Ki [2, 4] was 56.3 nM.

For `C=CCNC(=O)CCC/C=C\C/C=C\C/C=C\C/C=C\CCCCC` [Analog 7, N-Allylarachidonylamide], the Ki [1] was 226 nM, the Ki [2, 3] was 9.91 nM and the Ki [2, 4] was 2980 nM.

In the case of `CCCCC/C=C\C/C=C\C/C=C\C/C=C\CCCCNC(=O)COC(C)=O` [Analog 11, N-(2-Acetoxyacetyl)arachidonylamine], the Ki [2, 3] is reported as 421 nM and the Ki [2, 4] is reported as 419 nM.

Work on `CCCCC/C=C\C/C=C\C/C=C\C/C=C\CCCC(=O)N[C@H](C)CF` [Analog 1, N-(2-Fluoro-1R-(methylethyl)arachidonylamide)] yielded a Ki [1] of 785 nM, a Ki [2, 3] of 1.18 nM and a Ki [2, 4] of 10.1 nM.

In the case of `CCCCC/C=C\C/C=C\C/C=C\C/C=C\CCCCNC(=O)CCO` [Analog 10, N-(3-Hydroxypropionyl)arachidonylamine], the Ki [1] is reported as 3540 nM, the Ki [2, 3] is reported as 115 nM and the Ki [2, 4] is reported as 134 nM.

Work on `CCCCCC=CCC=CCC=CCC=CCCCC(=O)NCCCCl` [Analog 6, N-(3-Chloropropyl)arachidonylamide] yielded a Ki [1] of 193 nM, a Ki [2, 3] of 25.6 nM and a Ki [2, 4] of 387 nM.

For `CCCCC/C=C\C/C=C\C/C=C\C/C=C\CCCC(=O)N[C@H](C)CN=[N+]=[N-]` (racemic) [Analog 4, (R)-(+−)-Arachidonyl-1′-azido-2′-propylamide], the Ki [1] was 1230 nM, the Ki [2, 3] was 12.7 nM and the Ki [2, 4] was 25.6 nM.

`CCCCCC=CCC=CCC=CCC=CCCCC(=O)NCC(F)(F)F` [Analog 9, N-(2,2,2-Trifluroethyl) arachidonylamide] showed a Ki [1] of 718 nM, a Ki [2, 3] of 36.2 nM and a Ki [2, 4] of 2380 nM.

With `C#CCNC(=O)CCC/C=C\C/C=C\C/C=C\C/C=C\CCCCC` [Analog 8, N-Propargylarachidonylamide] the Ki [1] was 290 nM, the Ki [2, 3] was 10.8 nM and the Ki [2, 4] was 4900 nM.
